# pIC50: −log10 of the molar value.
# System: RS4;11 cells
# Test: Cell viability assay (CellTiter-Glo) in RS4;11 cells
# Type: cell-based
# Conditions: Homo sapiens, 72 h; RS4;11 ALL cells treated for three days; read-out: cell viability inhibition IC50
# How it was run: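 Three-day compound treatment of RS4;11 ALL cells (5000/well, 3-fold dilution series of 8 or 12 points), with IC50 from a nonlinear least-squares fit to CellTiter-Glo viability data.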
row,Compound,pIC50
1,"O=C1CCC(N2C(=O)c3ccc(NCCCCCCC(=O)N4CCC(n5cc(-c6cnc7cccc(-c8cc(F)c(CN9CCOCC9)c(F)c8)c7n6)cn5)CC4)cc3C2=O)C(=O)N1 (centres unmarked) [JA-188, 5-((7-(4-(4-(8-(3,5-difluoro-4-(morpholinomethyl)phenyl)quinoxalin-2-yl)-1H-pyrazol-1-yl)piperidin-1-yl)-7-oxoheptyl)amino)-2-(2,6-dioxopiperidin-3-yl)isoindoline-1,3-dione]",> 7.00
2,"CS(=O)(=O)c1ccc(-c2cccc3nc(Nc4ccc(N5CCN(C(=O)CCCCNc6ccc7c(c6)C(=O)N(C6CCC(=O)NC6=O)C7=O)CC5)cc4)nn23)cc1 (centres unmarked) [JA-196, 2-(2,6-dioxopiperidin-3-yl)-5-((5-(4-(4-((5-(4-(methylsulfonyl)phenyl)-[1,2,4]triazolo[1,5-a]pyridin-2-yl)amino)phenyl)piperazin-1-yl)-5-oxopentyl)amino)isoindoline-1,3-dione]",> 7.00

# Same assay, conditions: Homo sapiens, 72 h; RS4;11 cells; cell viability, 3 days, CellTiter-Glo; read-out: IC50
row,Compound,pIC50
1,"Cc1cnc(Nc2ccc(N3CCN(C(=O)COCCOCC(=O)N[C@H](C(=O)N4C[C@H](O)C[C@H]4C(=O)NCc4ccc(-c5scnc5C)cc4)C(C)(C)C)CC3)cc2)nc1Nc1cccc(S(=O)(=O)NC(C)(C)C)c1 [JA-032, (2S,4R)-1-((S)-2-(2-(2-(2-(4-(4-((4-((3-(N-(tert-Butyl)sulfamoyl)phenyl)amino)-5-methylpyrimidin-2-yl)amino)phenyl)piperazin-1-yl)-2-oxoethoxy)ethoxy)acetamido)-3,3-dimethylbutanoyl)-4-hydroxy-N-(4-(4-methylthiazol-5-yl)benzyl)pyrrolidine-2-carboxamide]",< 5.00
2,"O=C1CCC(N2C(=O)c3ccc(C#CCCCCCN4CCC(n5cc(-c6cnc7cccc(-c8cc(F)c(CN9CCOCC9)c(F)c8)c7n6)cn5)CC4)cc3C2=O)C(=O)N1 (centres unmarked) [JA-264, 5-(7-(4-(4-(8-(3,5-difluoro-4-(morpholinomethyl)phenyl)quinoxalin-2-yl)-1H-pyrazol-1-yl)piperidin-1-yl)hept-1-yn-1-yl)-2-(2,6-dioxopiperidin-3-yl)isoindoline-1,3-dione]",7.01
3,"O=C1CCC(N2C(=O)c3ccc(NCCCCCCC(=O)N4CCC(n5cc(-c6cnc7cccc(-c8cc(F)c(CN9CCOCC9)c(F)c8)c7n6)cn5)CC4)cc3C2=O)C(=O)N1 (centres unmarked) [JA-188, 5-((7-(4-(4-(8-(3,5-difluoro-4-(morpholinomethyl)phenyl)quinoxalin-2-yl)-1H-pyrazol-1-yl)piperidin-1-yl)-7-oxoheptyl)amino)-2-(2,6-dioxopiperidin-3-yl)isoindoline-1,3-dione]",7.16
4,"O=C1CCC(N2C(=O)c3ccc(NCCOCCOCCOCCOCCOCCC(=O)N4CCC(n5cc(-c6cnc7cccc(-c8cc(F)c(CN9CCOCC9)c(F)c8)c7n6)cn5)CC4)cc3C2=O)C(=O)N1 (centres unmarked) [JA-186, 5-((18-(4-(4-(8-(3,5-Difluoro-4-(morpholinomethyl)phenyl)quinoxalin-2-yl)-1H-pyrazol-1-yl)piperidin-1-yl)-18-oxo-3,6,9,12,15-pentaoxaoctadecyl)amino)-2-(2,6-dioxopiperidin-3-yl)isoindoline-1,3-dione]",< 5.00
5,"CS(=O)(=O)c1ccc(-c2cccc3nc(Nc4ccc(N5CCN(C(=O)CCCCC#Cc6ccc7c(c6)C(=O)N(C6CCC(=O)NC6=O)C7)CC5)cc4)nn23)cc1 (centres unmarked) [JA-262, 3-(6-(7-(4-(4-((5-(4-(Methylsulfonyl)phenyl)-[1,2,4]triazolo[1,5-a]pyridin-2-yl)amino)phenyl)piperazin-1-yl)-7-oxohept-1-yn-1-yl)-1-oxoisoindolin-2-yl)piperidine-2,6-dione]",< 5.00
6,"Cc1cnc(Nc2ccc(N3CCN(CC(=O)NCCCCCC(=O)N[C@H](C(=O)N4C[C@H](O)C[C@H]4C(=O)NCc4ccc(-c5scnc5C)cc4)C(C)(C)C)CC3)cc2)nc1Nc1cccc(S(=O)(=O)NC(C)(C)C)c1 [JA-101, (2S,4R)-1-((S)-2-(6-(2-(4-(4-((4-((3-(N-(tert-Butyl)sulfamoyl)phenyl)amino)-5-methylpyrimidin-2-yl)amino)phenyl)piperazin-1-yl)acetamido)hexanamido)-3,3-dimethylbutanoyl)-4-hydroxy-N-(4-(4-methylthiazol-5-yl)benzyl)pyrrolidine-2-carboxamide]",< 5.00
7,"CS(=O)(=O)c1ccc(-c2cccc3nc(Nc4ccc(N5CCN(CC(=O)NCCOCCOCCNc6ccc7c(c6)C(=O)N(C6CCC(=O)NC6=O)C7=O)CC5)cc4)nn23)cc1 (centres unmarked) [JA-208, N-(2-(2-(2-((2-(2,6-Dioxopiperidin-3-yl)-1,3-dioxoisoindolin-5-yl)amino)ethoxy)ethoxy)ethyl)-2-(4-(4-((5-(4-(methylsulfonyl)phenyl)-[1,2,4]triazolo[1,5-a]pyridin-2-yl)amino)phenyl)piperazin-1-yl)acetamide]",5.48
8,"Cc1ncsc1-c1ccc(CNC(=O)[C@@H]2C[C@@H](O)CN2C(=O)[C@@H](NC(=O)CCCCCCCCC(=O)N2CCN(c3ccc(Nc4nc5cccc(-c6ccc(S(C)(=O)=O)cc6)n5n4)cc3)CC2)C(C)(C)C)cc1 [JA-067, (2S,4R)-1-((S)-3,3-Dimethyl-2-(10-(4-(4-((5-(4-(methylsulfonyl)phenyl)-[1,2,4]triazolo[1,5-a]pyridin-2-yl)amino)phenyl)piperazin-1-yl)-10-oxodecanamido)butanoyl)-4-hydroxy-N-(4-(4-methylthiazol-5-yl)benzyl)pyrrolidine-2-carboxamide]",5.41

# The next lines start with the values.
row,pIC50,Compound
1,< 5.00,"Cc1ncsc1-c1ccc(CNC(=O)[C@@H]2C[C@@H](O)CN2C(=O)[C@@H](NC(=O)CCOCCOCCOCCOCCOCCNC(=O)CN2CCC(n3cc(-c4cnc5cccc(-c6cc(F)c(CN7CCOCC7)c(F)c6)c5n4)cn3)CC2)C(C)(C)C)cc1 [JA-159, (2S,4R)-1-((S)-23-(tert-Butyl)-1-(4-(4-(8-(3,5-difluoro-4-(morpholinomethyl)phenyl)quinoxalin-2-yl)-1H-pyrazol-1-yl)piperidin-1-yl)-2,21-dioxo-6,9,12,15,18-pentaoxa-3,22-diazatetracosan-24-oyl)-4-hydroxy-N-(4-(4-methylthiazol-5-yl)benzyl)pyrrolidine-2-carboxamide]"
2,< 5.00,"Cc1ncsc1-c1ccc(CNC(=O)[C@@H]2C[C@@H](O)CN2C(=O)[C@@H](NC(=O)CCOCCOCCOCCOCCNC(=O)CN2CCN(c3ccc(Nc4nc5cccc(-c6ccc(S(C)(=O)=O)cc6)n5n4)cc3)CC2)C(C)(C)C)cc1 [JA-133, (2S,4R)-1-((S)-20-(tert-Butyl)-1-(4-(4-((5-(4-(methylsulfonyl)phenyl)-[1,2,4]triazolo[1,5-a]pyridin-2-yl)amino)phenyl)piperazin-1-yl)-2,18-dioxo-6,9,12,15-tetraoxa-3,19-diazahenicosan-21-oyl)-4-hydroxy-N-(4-(4-methylthiazol-5-yl)benzyl)pyrrolidine-2-carboxamide]"
3,5.00,"O=C1CCC(N2C(=O)c3ccc(NCCOCCOCCOCCC(=O)N4CCC(n5cc(-c6cnc7cccc(-c8cc(F)c(CN9CCOCC9)c(F)c8)c7n6)cn5)CC4)cc3C2=O)C(=O)N1 (centres unmarked) [JA-184, 5-((2-(2-(2-(3-(4-(4-(8-(3,5-Difluoro-4-(morpholinomethyl)phenyl)quinoxalin-2-yl)-1H-pyrazol-1-yl)piperidin-1-yl)-3-oxopropoxy)ethoxy)ethoxy)ethyl)amino)-2-(2,6-dioxopiperidin-3-yl)isoindoline-1,3-dione]"
4,< 5.00,"CS(=O)(=O)c1ccc(-c2cccc3nc(Nc4ccc(N5CCN(C(=O)CCCNc6cccc7c6C(=O)N(C6CCC(=O)NC6=O)C7=O)CC5)cc4)nn23)cc1 (centres unmarked) [JA-010, 2-(2,6-Dioxopiperidin-3-yl)-4-((4-(4-(4-((5-(4-(methylsulfonyl)phenyl)-[1,2,4]triazolo[1,5-a]pyridin-2-yl)amino)phenyl)piperazin-1-yl)-4-oxobutyl)amino)isoindoline-1,3-dione]"
5,5.02,O=C1CCC(N2C(=O)c3ccc(NCC(=O)N4CCC(n5cc(-c6cnc7cccc(-c8cc(F)c(CN9CCOCC9)c(F)c8)c7n6)cn5)CC4)cc3C2=O)C(=O)N1 (centres unmarked) [JA-191]
6,< 5.00,"Cc1cnc(Nc2ccc(N3CCN(CC(=O)NCCOCCOCCOCCC(=O)N[C@H](C(=O)N4C[C@H](O)C[C@H]4C(=O)NCc4ccc(-c5scnc5C)cc4)C(C)(C)C)CC3)cc2)nc1Nc1cccc(S(=O)(=O)NC(C)(C)C)c1 [JA-221, (2S,4R)-1-((S)-17-(tert-butyl)-1-(4-(4-((4-((3-(N-(tert-butyl)sulfamoyl)phenyl)amino)-5-methylpyrimidin-2-yl)amino)phenyl)piperazin-1-yl)-2,15-dioxo-6,9,12-trioxa-3,16-diazaoctadecan-18-oyl)-4-hydroxy-N-(4-(4-methylthiazol-5-yl)benzyl)pyrrolidine-2-carboxamide]"
7,6.97,"CS(=O)(=O)c1ccc(-c2cccc3nc(Nc4ccc(N5CCN(C(=O)CCCCNc6ccc7c(c6)C(=O)N(C6CCC(=O)NC6=O)C7=O)CC5)cc4)nn23)cc1 (centres unmarked) [JA-196, 2-(2,6-dioxopiperidin-3-yl)-5-((5-(4-(4-((5-(4-(methylsulfonyl)phenyl)-[1,2,4]triazolo[1,5-a]pyridin-2-yl)amino)phenyl)piperazin-1-yl)-5-oxopentyl)amino)isoindoline-1,3-dione]"
8,< 5.00,"Cc1cnc(Nc2ccc(N3CCN(C(=O)CCCCCNc4ccc5c(c4)C(=O)N(C4CCC(=O)NC4=O)C5=O)CC3)cc2)nc1Nc1cccc(S(=O)(=O)NC(C)(C)C)c1 (centres unmarked) [JA-229, N-(tert-butyl)-3-((2-((4-(4-(6-((2-(2,6-dioxopiperidin-3-yl)-1,3-dioxoisoindolin-5-yl)amino)hexanoyl)piperazin-1-yl)phenyl)amino)-5-methylpyrimidin-4-yl)amino)benzenesulfonamide]"
9,< 5.00,"Cc1ncsc1-c1ccc(CNC(=O)[C@@H]2C[C@@H](O)CN2C(=O)[C@@H](NC(=O)CCCCCCCNC(=O)CN2CCN(c3ccc(Nc4nc5cccc(-c6ccc(S(C)(=O)=O)cc6)n5n4)cc3)CC2)C(C)(C)C)cc1 [JA-124, (2S,4R)-1-((S)-3,3-Dimethyl-2-(8-(2-(4-(4-((5-(4-(methylsulfonyl)phenyl)-[1,2,4]triazolo[1,5-a]pyridin-2-yl)amino)phenyl)piperazin-1-yl)acetamido)octanamido)butanoyl)-4-hydroxy-N-(4-(4-methylthiazol-5-yl)benzyl)pyrrolidine-2-carboxamide]"
10,5.37,"Cc1ncsc1-c1ccc(CNC(=O)[C@@H]2C[C@@H](O)CN2C(=O)[C@@H](NC(=O)COCCOCCNC(=O)CN2CCN(c3ccc(Nc4nc5cccc(-c6ccc(S(C)(=O)=O)cc6)n5n4)cc3)CC2)C(C)(C)C)cc1 [JA-134, (2S,4R)-1-((S)-2-(tert-Butyl)-14-(4-(4-((5-(4-(methylsulfonyl)phenyl)-[1,2,4]triazolo[1,5-a]pyridin-2-yl)amino)phenyl)piperazin-1-yl)-4,13-dioxo-6,9-dioxa-3,12-diazatetradecanoyl)-4-hydroxy-N-(4-(4-methylthiazol-5-yl)benzyl)pyrrolidine-2-carboxamide]"
